Results as given in patent US9023847B2, “Azaheterocyclic compounds” (Merck Patent GmbH, priority 2009, dated 2015).
Where two headings read alike, the source gives them in different places.

Target: T1, P70S6K (T412E mutant, Millipore) (Homo sapiens, UniProt P23443, T412E)
T1 construct: purchased Millipore
Test: p70S6K enzyme assay
Type: biochemical
Conditions: 3 nM P70S6K, 24 μM ATP
Description: P70S6K inhibitor compounds are diluted and plated in 96 well plates. A reaction mixture including the following components is then added to the compound plate to initiate the enzyme reaction; P70S6K (3 nM, T412E mutant, Millipore) is mixed with 24 μM ATP in an assay buffer containing 100 mM Hepes (pH 7.5), 5 mM MgCl2, 1 mM DTT, 0.015% Brij and 1 μM of the substrate peptide FITC-AHA-AKRRRLSSLRA-OH (derived from the S6 ribosomal protein sequence, FITC=fluorescein isothiocyanate, AHA=6-aminohexanoic acid). The reaction is incubated for 90 min at 25° C., before the addition of 10 mM EDTA to stop the reaction. The proportion of substrate and product (phosphorylated) peptide is analysed on a Caliper Life Sciences Lab Chip 3000, using a pressure of −1.4 psi, and upstream and downstream voltages of −3000 and −700 respectively. Product peaks are resolved before substrate peaks on the resulting chromatograms.

[1] = class symbol, read-out: IC50 (p70S6K)
[2] = Table 1, 90 min at 25° C., read-out: p70S6K inhibition (IC50)

T1 sequence (P23443 whole entry T412E): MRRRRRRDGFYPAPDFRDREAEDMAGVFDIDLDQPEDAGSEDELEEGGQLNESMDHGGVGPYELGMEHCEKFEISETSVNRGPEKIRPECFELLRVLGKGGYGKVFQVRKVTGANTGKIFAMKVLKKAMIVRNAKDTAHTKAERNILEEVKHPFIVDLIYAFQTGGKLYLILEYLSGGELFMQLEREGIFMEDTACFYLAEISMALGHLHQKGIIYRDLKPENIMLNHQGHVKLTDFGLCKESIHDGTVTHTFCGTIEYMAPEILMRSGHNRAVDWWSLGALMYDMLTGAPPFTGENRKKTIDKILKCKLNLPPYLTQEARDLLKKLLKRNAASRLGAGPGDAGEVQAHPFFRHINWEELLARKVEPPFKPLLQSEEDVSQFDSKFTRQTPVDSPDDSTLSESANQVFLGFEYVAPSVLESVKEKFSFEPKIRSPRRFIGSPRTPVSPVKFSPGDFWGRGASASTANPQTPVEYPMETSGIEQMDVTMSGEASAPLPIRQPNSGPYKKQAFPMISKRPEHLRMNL

IC50 [1] | IC50 [2] | Structure (SMILES)
< 0.1 µM |  | N#CC[C@@H](NC(=O)c1sccc1Nc1ccnc2[nH]ccc12)c1ccccc1 [Example 115, 3-(1H-Pyrrolo[2,3-b]pyridin-4-ylamino)-thiophene-2-carboxylic acid ((R)-2-cyano-1-phenyl-ethyl)-amide]
< 0.1 µM |  | NC[C@@H](NC(=O)c1sccc1Nc1ccnc2[nH]ccc12)c1ccccc1 [Example 170, 3-(1H-Pyrrolo[2,3-b]pyridin-4-ylamino)-thiophene-2-carboxylic acid ((S)-2-amino-1-phenyl-ethyl)-amide]
< 0.1 µM |  | O=C(NCCNC(=O)c1sccc1Nc1ccnc2[nH]ccc12)c1ccccc1 [Example 70, 3-(1H-Pyrrolo[2,3-b]pyridin-4-ylamino)-thiophene-2-carboxylic acid (2-benzoylamino-ethyl)-amide]
< 0.1 µM |  | COc1cccc(CNC(=O)c2sccc2Nc2ccnc3[nH]ccc23)c1 [Example 94, 3-(1H-Pyrrolo[2,3-b]pyridin-4-ylamino)-thiophene-2-carboxylic acid 3-methoxybenzylamide]
< 0.1 µM |  | O=C(Nc1ccc(Cl)cc1)c1sccc1Nc1ccnc2[nH]ccc12 [Example 35, 3-(1H-Pyrrolo[2,3-b]pyridin-4-ylamino)-thiophene-2-carboxylic acid (4-chloro-phenyl)-amide]
0.1 to 1 µM |  | Cc1cc(Nc2ncnc3[nH]ccc23)c(C(=O)NCc2cccc(Cl)c2)s1 [Example 178, 5-Methyl-3-(7H-pyrrolo[2,3-d]pyrimidin-4-ylamino)-thiophene-2-carboxylic acid 3-chloro-benzylamide]
< 0.1 µM |  | O=C(NCc1cccc(Cl)c1)c1occc1Nc1ncnc2[nH]ccc12 [Example 176, 3-(7H-Pyrrolo[2,3-d]pyrimidin-4-ylamino)-furan-2-carboxylic acid 3-chloro-benzylamide]
 | < 0.1 µM | O=C(NCCc1ccccc1)c1sccc1Nc1ncnc2[nH]ccc12 [Example 143, 3-(7H-Pyrrolo[2,3-d]pyrimidin-4-ylamino)-thiophene-2-carboxylic acid phenethyl-amide]
< 0.1 µM |  | COc1cccc(C(CN(C)C)NC(=O)c2sccc2Nc2ccnc3[nH]ccc23)c1 (centres unmarked) [Example 160, 3-(1H-Pyrrolo[2,3-b]pyridin-4-ylamino)-thiophene-2-carboxylic acid [2-dimethylamino-1-(3-methoxy-phenyl)-ethyl]-amide]
< 0.1 µM |  | O=C(NCCc1ccc(Br)cc1)c1sccc1Nc1ccnc2[nH]ccc12 [Example 27, 3-(1H-Pyrrolo[2,3-b]pyridin-4-ylamino)-thiophene-2-carboxylic acid [2-(4-bromo-phenyl)-ethyl]-amide]
0.1 to 1 µM |  | COc1ccccc1C(CN(C)C)NC(=O)c1sccc1Nc1ccnc2[nH]ccc12 (centres unmarked) [Example 158, 3-(1H-Pyrrolo[2,3-b]pyridin-4-ylamino)-thiophene-2-carboxylic acid [2-dimethylamino-1-(2-methoxy-phenyl)-ethyl]-amide]
0.1 to 1 µM |  | O=C(NCCN1CCOCC1)c1sccc1Nc1ccnc2[nH]ccc12 [Example 16, 3-(1H-Pyrrolo[2,3-b]pyridin-4-ylamino)-thiophene-2-carboxylic acid (2-morpholin-4-yl-ethyl)-amide]
0.1 to 1 µM |  | CNCCNC(=O)c1sccc1Nc1ncnc2[nH]ccc12 [Example 185, 3-(7H-Pyrrolo[2,3-d]pyrimidin-4-ylamino)-thiophene-2-carboxylic acid (2-methylamino-ethyl)-amide]
< 0.1 µM |  | COc1ccccc1CNCCNC(=O)c1sccc1Nc1ccnc2[nH]ccc12 [Example 60, 3-(1H-Pyrrolo[2,3-b]pyridin-4-ylamino)-thiophene-2-carboxylic acid [2-(2-methoxy-benzylamino)-ethyl]-amide]
 | < 0.1 µM | Cc1cc(Nc2ncnc3[nH]ccc23)c(C(=O)NCc2cccc(Cl)c2)s1 [Example 152, 5-Methyl-3-(7H-pyrrolo[2,3-d]pyrimidin-4-ylamino)-thiophene-2-carboxylic acid 3-chloro-benzylamide]
< 0.1 µM |  | COc1ccc(CNCCNC(=O)c2sccc2Nc2ccnc3[nH]ccc23)cc1Cl [Example 137, 3-(1H-Pyrrolo[2,3-b]pyridin-4-ylamino)-thiophene-2-carboxylic acid [2-(3-chloro-4-methoxy-benzylamino)-ethyl]-amide]
< 0.1 µM |  | N#CC[C@@H](NC(=O)c1ccsc1Nc1ccnc2[nH]ccc12)c1ccccc1 [Example 139, 2-(1H-Pyrrolo[2,3-b]pyridin-4-ylamino)-thiophene-3-carboxylic acid ((R)-2-cyano-1-phenyl-ethyl)-amide]
< 0.1 µM |  | CC(NCCNC(=O)c1sccc1Nc1ccnc2[nH]ccc12)c1ccccc1 (centres unmarked) [Example 131, 3-(1H-Pyrrolo[2,3-b]pyridin-4-ylamino)-thiophene-2-carboxylic acid [2-(1-phenyl-ethylamino)-ethyl]-amide]

IC50 [1] | IC50 [2] | Structure (SMILES)
< 0.1 µM |  | CN(C)CC(NC(=O)c1sccc1Nc1ccnc2[nH]ccc12)c1ccc(F)cc1 (centres unmarked) [Example 166, 3-(1H-Pyrrolo[2,3-b]pyridin-4-ylamino)-thiophene-2-carboxylic acid [2-dimethylamino-1-(4-fluoro-phenyl)-ethyl]-amide]
0.1 to 1 µM |  | CC(C)(C)OC(=O)N1CCC(NC(=O)c2sccc2Nc2ccnc3[nH]ccc23)C1 (centres unmarked) [Example 5, 3-{[3-(1H-Pyrrolo[2,3-b]pyridin-4-ylamino)-thiophene-2-carbonyl]-amino}-pyrrolidine-1-carboxylic acid tert-butyl ester]
< 0.1 µM |  | O=C(NCc1ccc(Cl)c(C(F)(F)F)c1)c1sccc1Nc1ccnc2[nH]ccc12 [Example 98, 3-(1H-Pyrrolo[2,3-b]pyridin-4-ylamino)-thiophene-2-carboxylic acid 4-chloro-3-trifluoromethyl-benzylamide]
< 0.1 µM |  | O=C(NCCNCc1ccsc1)c1sccc1Nc1ccnc2[nH]ccc12 [Example 46, 3-(1H-Pyrrolo[2,3-b]pyridin-4-ylamino)-thiophene-2-carboxylic acid {2-[(thiophen-3-ylmethyl)-amino]-ethyl}-amide]
< 0.1 µM |  | O=C(NCCNCc1ccccn1)c1sccc1Nc1ccnc2[nH]ccc12 [Example 41, 3-(1H-Pyrrolo[2,3-b]pyridin-4-ylamino)-thiophene-2-carboxylic acid {2-[(pyridin-2-ylmethyl)-amino]-ethyl}-amide]
0.1 to 1 µM |  | COC(=O)C(CO)NC(=O)c1sccc1Nc1ccnc2[nH]ccc12 (centres unmarked) [Example 85, 3-Hydroxy-2-{[3-(1H-pyrrolo[2,3-b]pyridin-4-ylamino)-thiophene-2-carbonyl]-amino}-propionic acid methyl ester]
0.1 to 1 µM |  | O=C(NCc1cccnc1)c1sccc1Nc1ccnc2[nH]ccc12 [Example 8, 3-(1H-Pyrrolo[2,3-b]pyridin-4-ylamino)-thiophene-2-carboxylic acid (pyridin-3-ylmethyl)-amide]
< 0.1 µM |  | O=C(NCCNCc1cccc(OC(F)(F)F)c1)c1sccc1Nc1ccnc2[nH]ccc12 [Example 50, 3-(1H-Pyrrolo[2,3-b]pyridin-4-ylamino)-thiophene-2-carboxylic acid [2-(3-trifluoromethoxy-benzylamino)-ethyl]-amide]
1 to 10 µM |  | Cc1cc(Nc2ccnc3[nH]ccc23)c(C(=O)NCCNCc2ccccc2)s1 [Example 79, 5-Methyl-3-(1H-pyrrolo[2,3-b]pyridin-4-ylamino)-thiophene-2-carboxylic acid (2-benzylamino-ethyl)-amide]
< 0.1 µM |  | Cc1c[nH]c2ncnc(Nc3ccsc3C(=O)NCc3cccc(Cl)c3)c12 [Example 187, 3-(5-Methyl-7H-pyrrolo[2,3-d]pyrimidin-4-ylamino)-thiophene-2-carboxylic acid 3-chloro-benzylamide]
< 0.1 µM |  | Nc1cccc(CNC(=O)c2sccc2Nc2ccnc3[nH]ccc23)c1 [Example 87, 3-(1H-Pyrrolo[2,3-b]pyridin-4-ylamino)-thiophene-2-carboxylic acid 3-amino-benzylamide]
< 0.1 µM |  | COc1cccc([C@@H](CN)NC(=O)c2sccc2Nc2ccnc3[nH]ccc23)c1 (stereo in doubt) [Example 123, 3-(1H-Pyrrolo[2,3-b]pyridin-4-ylamino)-thiophene-2-carboxylic acid [2-amino-1-(3-methoxy-phenyl)-ethyl]-amide]
0.1 to 1 µM |  | CC(C)C[C@@H](CO)NC(=O)c1sccc1Nc1ccnc2[nH]ccc12 [Example 97, 3-(1H-Pyrrolo[2,3-b]pyridin-4-ylamino)-thiophene-2-carboxylic acid ((S)-1-hydroxymethyl-3-methyl-butyl)-amide]
0.1 to 1 µM |  | COc1cc(CNC(=O)c2sccc2Nc2ccnc3[nH]ccc23)cc(OC)c1 [Example 95, 3-(1H-Pyrrolo[2,3-b]pyridin-4-ylamino)-thiophene-2-carboxylic acid 3,5-dimethoxy-benzylamide]
< 0.1 µM |  | NC[C@@H](NC(=O)c1sccc1Nc1ccnc2[nH]ccc12)c1ccc(Cl)c(Cl)c1 (stereo in doubt) [Example 125, 3-(1H-Pyrrolo[2,3-b]pyridin-4-ylamino)-thiophene-2-carboxylic acid [2-amino-1-(3,4-dichloro-phenyl)-ethyl]-amide]
 | 0.1 to 1 µM | CC(C)NC(=O)c1ccccc1Nc1ccnc2[nH]ccc12 [Example 155, N-Isopropyl-2-(1H-pyrrolo[2,3-b]pyridin-4-ylamino)-benzamide]
0.1 to 1 µM |  | O=C(NCCc1ccccn1)c1sccc1Nc1ccnc2[nH]ccc12 [Example 19, 3-(1H-Pyrrolo[2,3-b]pyridin-4-ylamino)-thiophene-2-carboxylic acid (2-pyridin-2-yl-ethyl)-amide]
